Assay [1] has as its target T1, 5-HT1A receptor (Sus scrofa, UniProt A0A4X1UTF5).
T1 construct: membranes from pig brain cortex; from tissue; host or cells: pig brain cortex membranes
T1 sequence (A0A4X1UTF5 1-422): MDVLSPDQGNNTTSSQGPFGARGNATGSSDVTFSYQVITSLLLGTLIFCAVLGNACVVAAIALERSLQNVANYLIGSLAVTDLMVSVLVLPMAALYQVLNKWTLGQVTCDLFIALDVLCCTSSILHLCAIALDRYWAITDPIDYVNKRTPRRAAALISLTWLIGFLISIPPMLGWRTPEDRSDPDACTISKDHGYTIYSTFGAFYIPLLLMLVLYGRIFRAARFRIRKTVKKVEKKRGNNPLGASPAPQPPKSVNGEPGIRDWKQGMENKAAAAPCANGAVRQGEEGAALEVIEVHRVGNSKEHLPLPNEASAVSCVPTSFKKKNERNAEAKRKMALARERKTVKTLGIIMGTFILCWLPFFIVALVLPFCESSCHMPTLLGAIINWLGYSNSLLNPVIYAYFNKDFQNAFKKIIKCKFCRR
Nature of the assay: Radioligand binding with [3H]8-OH-DPAT, affinity for 5-HT1A receptor. The following applies: membranes from pig brain cortex, IC50 corrected according to Cheng and Prusoff; for Ki: read-out: Receptor affinity 5-HT1A, expressed in pKI values (converted). How it is done:
The affinity of substances for the 5-HT1A receptor was determined in radioligand binding studies using [^3 H]8-OH-DPAT as a radioligand. 50-150 μg of membranes from pig brain cortex were incubated in a total volume of 0.25-0.5 ml with [^3 H]8-OH-DPAT (0.2 to 0.4 nmol/l) in the presence of rising concentrations of substances. The incubation buffer used was 50 mmol/l tris/HCl pH 8.2, 1 mmol/l MnCl2. The nonspecific binding was determined in separate batches in the presence of 10 μmol/l of 5-HT. After 30 min at 23° C., the bound radioactivity was separated from the free radioactivity by rapid filtration of the incubation batch at 0° C. through glass fiber filters. The filters were washed twice with 3.5 ml each of cold filtration buffer (50 mmol/l tris/HCl pH 7.4, 10 mmol/l MgCl2, 10% polyethylene glycol 6000). The filter-bound radioactivity was determined by liquid scintillation counting.
(§1) For each substance, dose-response curves were plotted by means of nonlinear regression using the Inplot program (GraphPad, Sorento, Calif., USA). IC50 values were corrected by the concentration of the radioligand employed according to the formula of Cheng and Prusoff. The resulting KI values (see following table) represent the affinity of the respective substance for the tested receptor. The compounds according to the invention investigated according to the model illustrated in greater detail above have been provided in the following table with numbers which correspond to the numbers of these compounds in the examples.

Assay [2] concerns the target T2, α1A receptor (Rattus norvegicus, UniProt P43140).
T2 construct: membranes from rat brain cortex; from tissue; host or cells: rat brain cortex membranes
T2 sequence (P43140 1-466): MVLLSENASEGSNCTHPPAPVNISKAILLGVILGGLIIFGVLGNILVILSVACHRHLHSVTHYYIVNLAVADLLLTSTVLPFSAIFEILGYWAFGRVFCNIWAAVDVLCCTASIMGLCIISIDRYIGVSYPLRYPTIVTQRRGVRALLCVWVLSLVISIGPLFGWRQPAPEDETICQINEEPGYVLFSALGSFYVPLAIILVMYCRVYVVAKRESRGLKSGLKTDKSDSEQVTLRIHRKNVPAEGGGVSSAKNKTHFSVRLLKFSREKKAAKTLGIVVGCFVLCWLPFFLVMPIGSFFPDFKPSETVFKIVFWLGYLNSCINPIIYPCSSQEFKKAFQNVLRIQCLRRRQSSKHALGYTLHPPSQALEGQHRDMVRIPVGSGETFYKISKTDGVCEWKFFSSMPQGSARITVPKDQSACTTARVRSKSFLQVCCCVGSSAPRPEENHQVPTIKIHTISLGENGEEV
Kind of assay: Radioligand binding with [3H]prazosine, affinity for α1A receptor subtype. The following applies: membranes from rat brain cortex, IC50 corrected according to Cheng and Prusoff; for Ki: read-out: Receptor affinity α1A, expressed in pKI values (converted). How it is done:
(§2) The affinity of substances for α1 receptor subtypes was determined in radioligand binding studies using [^3 H]prazosine as a radioligand. 50-200 μg of membranes from rat brain cortex were incubated in a total volume of 0.5-1 ml with [^3 H]prazosine (0.2 to 0.5 nmol/l) in the presence of rising concentrations of substances. The incubation buffer used was 50 mmol/l tris/HCl pH 7.5, 1 mmol/l EDTA, 0.1 mmol/l PMSF. The nonspecific binding was determined in separate batches in the presence of 10 μmol/l of phentolamine or 1 μmol/l of prazosine. After 1 h at 37° C., the bound radioactivity was separated from the free radioactivity by rapid filtration of the incubation batch at 0° C. through glass fiber filters. The filters were washed twice with 3.5 ml each of cold filtration buffer (50 mmol/l tris/HCl pH 7.4, 10 mmol/l MgCl2, 10% polyethylene glycol 6000). The filter-bound radioactivity was determined by liquid scintillation counting. Substances with subtype selectivity for the α1 receptor subtypes were tested again in the presence of 3 nmol/l of WB 4101. WB4101 blocks the binding of [^3 H]prazosine to the α1A receptor subtype and the remaining binding corresponds to that to the α1B receptor.
as §1

In assay [3] the target is T3, α1B receptor (Rattus norvegicus, UniProt P15823).
T3 construct: membranes from rat brain cortex; from tissue; host or cells: rat brain cortex membranes
T3 sequence (P15823 1-515): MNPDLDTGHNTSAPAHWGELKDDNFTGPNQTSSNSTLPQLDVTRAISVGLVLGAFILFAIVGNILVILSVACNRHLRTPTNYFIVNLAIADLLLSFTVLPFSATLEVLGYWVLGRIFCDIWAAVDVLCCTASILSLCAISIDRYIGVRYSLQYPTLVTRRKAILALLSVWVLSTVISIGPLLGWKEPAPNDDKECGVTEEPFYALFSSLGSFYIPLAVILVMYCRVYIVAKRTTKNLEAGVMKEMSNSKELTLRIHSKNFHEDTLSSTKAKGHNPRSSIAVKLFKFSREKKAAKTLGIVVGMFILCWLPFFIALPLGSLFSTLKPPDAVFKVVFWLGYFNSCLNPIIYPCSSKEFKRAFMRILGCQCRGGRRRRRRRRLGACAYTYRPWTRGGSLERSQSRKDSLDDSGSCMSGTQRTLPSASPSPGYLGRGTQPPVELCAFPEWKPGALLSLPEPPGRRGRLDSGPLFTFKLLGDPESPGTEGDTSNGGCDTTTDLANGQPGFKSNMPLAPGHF
Nature of the assay: Radioligand binding with [3H]prazosine (in the presence of WB 4101), affinity for α1B receptor subtype. The following applies: membranes from rat brain cortex, subtype-selective substances tested again in the presence of 3 nmol/l WB 4101, Cheng and Prusoff; for Ki: read-out: Receptor affinity α1B, expressed in pKI values (converted). How it is done: as §2, §1

14 molecules from US6046329A, “Uracil derivatives” (Byk Gulden Lomberg Chemische Fabrik GmbH, priority 1994, dated 2000) can be followed below.

SMILES strings stand for the structures.

Turning to `COc1cc(Br)c(Br)cc1N1CCN(CCCNc2c(C)c(=O)n(C)c(=O)n2C)CC1` [Compound 1, 1,3,5-Trimethyl-6-[[3-[4-(3,4-dibromo-6-methoxy-phenyl)-1-piperazinyl]propyl]amino]-2,4(1H,3H)-pyrimidinedione], the Ki in assay [1] was 1.26 nM; in assay [2], 5.01 nM; in assay [3], 5.01 nM.

With `COc1ccccc1N1CCN(CCCNc2c(Cc3c(NCCCN4CCN(c5ccccc5OC)CC4)n(C)c(=O)n(C)c3=O)c(=O)n(C)c(=O)n2C)CC1` [Compound 2], the Ki in assay [1] is 12.6 nM; in assay [2], 0.398 nM; in assay [3], 0.398 nM.

Consider `CCOc1ccccc1N1CCN(CCCNc2c(CCC#N)c(=O)n(C)c(=O)n2C)CC1` [Compound 3, 5-Cyanoethyl-1,3-dimethyl-6-[[3-[4-(2-ethoxyphenyl)-1-piperazinyl]propyl]amino]-2,4(1H,3H)-pyrimidinedione], for which the Ki in assay [1] was 0.398 nM; in assay [2], 0.501 nM; in assay [3], 63.1 nM.

Take `CCOc1cc(F)ccc1N1CCN(CCCNc2c(Cc3c(NCCCN4CCN(c5ccc(F)cc5OCC)CC4)n(C)c(=O)n(C)c3=O)c(=O)n(C)c(=O)n2C)CC1` [Compound 4, Bis[1,3-dimethyl-6-[[3-[4-(2-ethoxy-4-fluorophenyl)-1-piperazinyl]propyl]amino]-2,4(1H,3H)-pyrimidinedione-5,5'-yl]methane]: the Ki in assay [1] is 39.8 nM; in assay [2], 1 nM; in assay [3], 1 nM.

`COc1ccccc1N1CCN(CCCNC(=O)c2cc(=O)n(C)c(=O)n2C)CC1` [Compound 5, 1,3-Dimethyl-2,4(1H,3H)-pyrimidinedione-6-carboxylic acid [[3-[4-(2-methoxyphenyl)-1-piperazinyl]propyl]amide]]: the Ki in assay [1] is 2.51 nM; in assay [2], 5.01 nM; in assay [3], 251 nM.

`Cc1c(NCCCN2CCN(c3ccccc3OC(F)(F)C(F)F)CC2)n(C)c(=O)n(C)c1=O` [Compound 6, 1,3,5-Trimethyl-6-[[3-[4-(2-tetrafluoro-ethoxyphenyl)-1-piperazinyl]-propyl]amino]-2,4(1H,3H)-pyrimidinedione]: the “Receptor affinity 5-HT1A, expressed in pKI values” (shortened to “Receptor affinity 5-HT1A”) in assay [1] was found to be 9.7. In addition, the “Receptor affinity α1A, expressed in pKI values” (“Receptor affinity α1A, expressed” below) in assay [2] is recorded as 9.4. Moreover, the “Receptor affinity α1B, expressed in pKI values” (“Receptor affinity α1B, expressed” below) in assay [3] was 7.5.

For `C=CCc1c(NCCCN2CCN(c3ccc(F)cc3OCC)CC2)n(C)c(=O)n(C)c1=O` [Compound 7, 5-Allyl-1,3-dimethyl-6-[[3-[4-(2-ethoxy-4-fluorophenyl)-1-piperazinyl]propyl]amino]-2,4(1H,3H)-pyrimidinedione], the Ki in assay [1] is 0.794 nM; in assay [2], 0.631 nM; in assay [3] it was 39.8 nM.

For `Cn1c(NCCCN2CCN(c3ccccc3OC(F)(F)C(F)F)CC2)c(CCC#N)c(=O)n(C)c1=O` [Compound 8], the “Receptor affinity 5-HT1A” value in assay [1] was determined as 10.0. Also, the “Receptor affinity α1A, expressed” value in assay [2] stood at 9.2. Besides, the “Receptor affinity α1B, expressed” value in assay [3] is reported as 7.5.

As to `Cc1c(NCCCN2CCN(c3cccc4c3OCC(CO)O4)CC2)n(C)c(=O)n(C)c1=O` (stereo not drawn) [Compound 9, 1,3,5-Trimethyl-6-[[3-[4-((2,3-dihydro-2-hydroxymethyl)-1,4-benzodioxin-5-yl)-1-piperazinyl]propyl]amino]-2,4(1H,3H)-pyrimidinedione], the Ki in assay [1] is 0.2 nM; in assay [2] it was 2 nM; in assay [3], 1580 nM.

As for `Cn1c(NCCCN2CCN(c3cccc4c3OCC(CO)O4)CC2)c(Cc2c(NCCCN3CCN(c4cccc5c4OCC(CO)O5)CC3)n(C)c(=O)n(C)c2=O)c(=O)n(C)c1=O` (stereo not drawn) [Compound 10, Bis[1,3-dimethyl-6-[[3-[4-((2,3-dihydro-2-hydroxymethyl)-1,4-benzodioxin-5-yl)-1-piperazinyl]propyl]amino]-2,4(1H,3H)-pyrimidinedione-5,5'-yl]methane], the Ki in assay [1] is 0.501 nM; in assay [2], 7.94 nM; in assay [3], 7.94 nM.

As to `C=CCc1c(NCCCN2CCN(c3ccccc3OC(F)(F)C(F)F)CC2)n(C)c(=O)n(C)c1=O` [Compound 11, 5-Allyl-1,3-dimethyl-6-[[3-[4-(2-tetrafluoro-ethoxyphenyl)-1-piperazinyl]propyl]amino]-2,4(1H,3H)-pyrimidinedione], the “Receptor affinity 5-HT1A” value in assay [1] was 9.3. Also, in assay [2], the “Receptor affinity α1A, expressed” value came out at 9.6. The “Receptor affinity α1B, expressed” value in assay [3] is recorded as 7.9.

Regarding `CCOC(=O)c1c(NCCCN2CCN(c3ccccc3OC)CC2)n(C)c(=O)n(C)c1=O` [Compound 12, 1,3-Dimethyl-5-ethoxycarbonyl-6-[[3-[4-(2-methoxyhenyl)-1-piperazinyl]propyl]amino]-2,4(1H,3H)-pyrimidinedione], the Ki was 6.31 nM in assay [1], 25.1 nM in assay [2] and 25.1 nM in assay [3].

As for `Cc1c(NCCCN2CCN(c3ccccc3O)CC2)n(C)c(=O)n(C)c1=O` [Compound 13, 1,3,5-Trimethyl-6-[[3-[4-(2-hydroxyphenyl)-1-piperazinyl]propyl]amino]-2,4(1H,3H)-pyrimidinedione], the Ki in assay [1] was 0.251 nM; in assay [2] it was 20 nM; in assay [3], 20 nM.

For `COc1cc([N+](=O)[O-])ccc1N1CCN(CCCNc2c(C)c(=O)n(C)c(=O)n2C)CC1` [Compound 14, 1,3,5-Trimethyl-6-[[3-[4-(2-methoxy-4-nitrophenyl)-1-piperazinyl]propyl]amino]-2,4(1H,3H)-pyrimidinedione], the Ki in assay [1] is 200 nM; in assay [2], 251 nM; in assay [3], 251 nM.
